Patent US20230293407A1, “Compositions Comprising (Bio)-Alkanediols with Antimicrobials for Product Protection” (Symrise AG, priority 2020, published 2023)
Like-named read-outs stand apart in the source and are kept apart here.

What was measured:
Assay in all cases: preservation efficacy test (PET), European Pharmacopoeia 5.1.3
Type in all cases: cell-based
[1] = test system: Escherichia coli
[2] = test system: Candida albicans; settings: for count at 2 days: 2 days after inoculation
[3] = test system: Pseudomonas aeruginosa
[4] = test system: Aspergillus brasiliensis
[5] = test system: Staphylococcus aureus
[6] = EC, 2 days after inoculation, use concentration in label
[7] = EC, 7 days after inoculation, use concentration in label
[8] = EC, 14 days after inoculation, use concentration in label
[9] = EC, 28 days after inoculation, use concentration in label
[10] = CA, 7 days after inoculation, use concentration in label
[11] = CA, 14 days after inoculation, use concentration in label
[12] = CA, 28 days after inoculation, use concentration in label
[13] = PA, 2 days after inoculation, use concentration in label
[14] = PA, 7 days after inoculation, use concentration in label
[15] = PA, 14 days after inoculation, use concentration in label
[16] = PA, 28 days after inoculation, use concentration in label
[17] = AB, 28 days after inoculation, use concentration in label
[18] = SA, 7 days after inoculation, use concentration in label
[19] = SA, 14 days after inoculation, use concentration in label
[20] = SA, 28 days after inoculation, use concentration in label
[21] = AB, 7 days after inoculation, use concentration in label
[22] = AB, 14 days after inoculation, use concentration in label
[23] = 7 days after inoculation, substance at given % in test formulation
[24] = 14 days after inoculation, substance at given % in test formulation
[25] = 28 days after inoculation, substance at given % in test formulation
[26] = 2 days after inoculation, substance at given % in test formulation

| Structure (SMILES) | count at 2 days [1, 6] | count at 7 days [1, 7] | count at 14 days [1, 8] | count at 28 days [1, 9] | count at 2 days ([2]; CA, use concentration in label) | count at 7 days [2, 10] | count at 14 days [2, 11] | count at 28 days [2, 12] | count at 2 days [3, 13] | count at 7 days [3, 14] | count at 14 days [3, 15] | count at 28 days [3, 16] | count at 28 days [4, 17] | count at 7 days [5, 18] | count at 14 days [5, 19] | count at 28 days [5, 20] | count at 7 days [4, 21] | count at 14 days [4, 22] | other results |
| --- | --- | --- | --- | --- | --- | --- | --- | --- | --- | --- | --- | --- | --- | --- | --- | --- | --- | --- | --- |
| CC(=O)CCc1ccc(OCCO)cc1 [0.4% Hydroxyethoxyphenyl Butanone] | 200 | 1 | 1 | 1 | 95.000 | 1 | 490 | 450 | 1 | 1 | 1 | 1 | 810.000 | 1 | 1 | 1 | – | – | count at 2 days ([5]; SA, 2 days after inoculation, use concentration in label): 39.000 |
| O=C([O-])c1ccccc1.[Na+] [0.2% Sodium Benzoate] | – | – | – | – | – | – | – | – | – | – | – | – | – | – | – | – | – | – | count at 2 days [1]: 130.000; count at 7 days [1]: 11.000; count at 14 days [1]: 1; count at 28 days [1]: 1; count at 7 days [2]: 250.000; count at 28 days [2]: 1; count at 2 days [3]: 1; count at 7 days [3]: 1; count at 14 days [3]: 1; count at 28 days [3]: 1; count at 2 days [4]: 760.000; count at 7 days [4]: 880.000; count at 14 days [4]: 200.000; count at 28 days [4]: 230.000; count at 2 days [5]: 320.000; count at 7 days [5]: 74.000; count at 14 days [5]: 1; count at 28 days [5]: 1 |
| O=C([O-])CC[C@@H](C(=O)[O-])N(CC(=O)[O-])CC(=O)[O-].[Na+].[Na+].[Na+].[Na+] | 50.000 | 23.000 | 450.000 | – | – | – | 200.000 | 390.000 | 43.000 | 95.000 | 510.000 | 350.000 | 660.000 | 810.000 | – | – | 440.000 | 720.000 | – |
| CC(=O)c1ccc(O)cc1 [0.1% 4-Hydroxyacetophenone (SymSave H)] | – | – | – | – | – | – | – | – | – | – | – | – | – | – | – | – | – | – | EC germ count, 7 days [1, 23]: 87.000; EC germ count, 14 days [1, 24]: 2.400; EC germ count, 28 days [1, 25]: 1; CA germ count, 7 days [2, 23]: 81.000; CA germ count, 14 days [2, 24]: 120; CA germ count, 28 days [2, 25]: 1; PA germ count, 2 days [3, 26]: 1; PA germ count, 7 days [3, 23]: 1; PA germ count, 14 days [3, 24]: 1; PA germ count, 28 days [3, 25]: 1; AB germ count, 7 days [4, 23]: 680.000; AB germ count, 14 days [4, 24]: 58.000; AB germ count, 28 days [4, 25]: 18.000; SA germ count, 2 days [5, 26]: 210.000; SA germ count, 7 days [5, 23]: 1; SA germ count, 14 days [5, 24]: 1; SA germ count, 28 days [5, 25]: 1 |
| CCCCC(O)C(C)O (stereo not drawn) [0.4% 2,3-heptanediol] | 320.000 | 2.400 | 1 | 1 | 640.000 | 350.000 | 130.000 | 11.000 | 1 | 1 | 1 | 1 | 390.000 | 12.000 | 1 | 1 | 930.000 | 500.000 | count at 2 days ([4]; AB, 2 days after inoculation, use concentration in label): 790.000 |
